Laboratory results as given in ChEMBL document CHEMBL4616706 (ACS Med Chem Lett, 2020).
Converted amounts (≈) assume the structure as drawn.

How the values were obtained:
[1] = target: Gamma-secretase; assay: Modulation of gamma secretase in human H4 cells overexpressing human APP695 harboring K595N/M596L Swedish double mutant assessed as reduction in total amyloid beta (1 to 42 residues) production measured after 24 hrs by AlphaLISA assay; type: cell-based
[2] = Solubility of compound by LYSA assay; type: physicochemical
[3] = Clearance in human hepatocytes assessed per million cells; type: ADME, cell-based, Hepatocyte; conditions: read-out: CLH
[4] = target: hERG (KCNH2) (Homo sapiens, UniProt Q12809); assay: (§1) Inhibition of human ERG; conditions: human
Sequence of hERG (KCNH2) (Q12809 whole entry): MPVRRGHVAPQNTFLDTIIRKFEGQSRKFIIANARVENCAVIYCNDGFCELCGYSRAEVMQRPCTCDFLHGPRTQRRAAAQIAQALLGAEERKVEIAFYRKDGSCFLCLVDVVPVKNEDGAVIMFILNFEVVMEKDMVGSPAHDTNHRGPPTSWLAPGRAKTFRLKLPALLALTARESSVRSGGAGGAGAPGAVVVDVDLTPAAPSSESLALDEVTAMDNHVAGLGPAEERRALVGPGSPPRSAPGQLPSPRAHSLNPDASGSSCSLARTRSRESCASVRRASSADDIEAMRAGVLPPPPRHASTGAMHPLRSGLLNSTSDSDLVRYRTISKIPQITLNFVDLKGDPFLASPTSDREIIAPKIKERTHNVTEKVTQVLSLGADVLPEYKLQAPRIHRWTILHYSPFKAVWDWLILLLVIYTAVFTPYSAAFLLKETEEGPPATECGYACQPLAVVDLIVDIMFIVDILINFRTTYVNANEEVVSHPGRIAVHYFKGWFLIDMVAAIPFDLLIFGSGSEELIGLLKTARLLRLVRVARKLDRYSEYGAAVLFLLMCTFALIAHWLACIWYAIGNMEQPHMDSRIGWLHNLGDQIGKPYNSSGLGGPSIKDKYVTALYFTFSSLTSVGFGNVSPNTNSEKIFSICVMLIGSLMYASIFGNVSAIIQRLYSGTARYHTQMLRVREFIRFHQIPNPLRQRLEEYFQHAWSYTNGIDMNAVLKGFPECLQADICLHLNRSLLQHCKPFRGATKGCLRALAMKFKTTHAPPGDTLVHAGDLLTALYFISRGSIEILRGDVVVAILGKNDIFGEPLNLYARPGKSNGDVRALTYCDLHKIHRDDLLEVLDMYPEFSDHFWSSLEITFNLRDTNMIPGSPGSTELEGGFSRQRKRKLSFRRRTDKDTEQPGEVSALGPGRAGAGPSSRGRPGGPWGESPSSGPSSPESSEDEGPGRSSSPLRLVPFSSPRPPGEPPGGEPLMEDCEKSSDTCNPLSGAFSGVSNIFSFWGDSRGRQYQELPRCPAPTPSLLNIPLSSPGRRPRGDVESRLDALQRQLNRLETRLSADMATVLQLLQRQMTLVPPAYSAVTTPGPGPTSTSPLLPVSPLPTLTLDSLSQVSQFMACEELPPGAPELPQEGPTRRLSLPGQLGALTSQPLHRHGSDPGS

[5] = target: Voltage-gated inwardly rectifying potassium channel KCNH2 (Homo sapiens, UniProt Q12809); assay: as §1
Sequence of Voltage-gated inwardly rectifying potassium channel KCNH2 (Q12809 whole entry): as above

[6] = target: P-gp (ABCB1) (Homo sapiens, UniProt P08183); assay: Substrate activity at human P-gp assessed as efflux ratio; type: ADME; conditions: not told
Sequence of P-gp (ABCB1) (P08183 whole entry, the tested form may be a part): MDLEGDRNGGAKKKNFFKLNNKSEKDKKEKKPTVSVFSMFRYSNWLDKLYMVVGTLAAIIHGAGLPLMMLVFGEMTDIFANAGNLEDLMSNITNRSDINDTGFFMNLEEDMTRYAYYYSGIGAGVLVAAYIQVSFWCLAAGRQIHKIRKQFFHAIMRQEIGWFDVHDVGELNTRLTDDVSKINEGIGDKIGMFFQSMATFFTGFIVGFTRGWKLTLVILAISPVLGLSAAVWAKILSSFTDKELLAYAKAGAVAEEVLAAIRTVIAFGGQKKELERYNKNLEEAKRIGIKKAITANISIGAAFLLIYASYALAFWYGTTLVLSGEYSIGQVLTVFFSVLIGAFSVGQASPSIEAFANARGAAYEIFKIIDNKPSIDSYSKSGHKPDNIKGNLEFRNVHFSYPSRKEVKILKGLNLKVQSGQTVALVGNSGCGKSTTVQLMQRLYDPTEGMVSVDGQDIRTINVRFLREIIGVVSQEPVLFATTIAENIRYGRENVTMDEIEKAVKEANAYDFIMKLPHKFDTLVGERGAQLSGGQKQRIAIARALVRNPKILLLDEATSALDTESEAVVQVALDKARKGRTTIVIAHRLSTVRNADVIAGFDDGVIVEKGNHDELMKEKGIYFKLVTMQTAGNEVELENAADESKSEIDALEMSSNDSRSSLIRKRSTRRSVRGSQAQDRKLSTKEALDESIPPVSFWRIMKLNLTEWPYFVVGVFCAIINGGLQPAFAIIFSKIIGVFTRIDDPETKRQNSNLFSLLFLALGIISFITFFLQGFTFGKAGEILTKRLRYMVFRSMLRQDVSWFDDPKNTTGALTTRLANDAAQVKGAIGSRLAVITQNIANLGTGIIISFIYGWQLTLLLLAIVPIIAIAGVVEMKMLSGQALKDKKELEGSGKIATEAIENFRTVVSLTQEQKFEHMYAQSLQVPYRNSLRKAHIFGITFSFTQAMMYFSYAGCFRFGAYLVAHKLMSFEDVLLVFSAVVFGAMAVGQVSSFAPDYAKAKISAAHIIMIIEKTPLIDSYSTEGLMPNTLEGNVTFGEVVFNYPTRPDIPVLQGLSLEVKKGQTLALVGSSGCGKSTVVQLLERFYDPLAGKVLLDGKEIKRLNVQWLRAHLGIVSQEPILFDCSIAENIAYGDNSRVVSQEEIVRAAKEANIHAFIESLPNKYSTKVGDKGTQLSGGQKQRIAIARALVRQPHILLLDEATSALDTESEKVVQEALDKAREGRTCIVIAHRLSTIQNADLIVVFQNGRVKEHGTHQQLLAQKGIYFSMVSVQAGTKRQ

[7] = target: Gamma-secretase; assay: Modulation of human gamma secretase expressed in HEK293 cells assessed as reduction in total amyloid beta (1 to 42 residues) production; type: cell-based
[8] = Glutathione reactivity of compound; type: physicochemical
[9] = Unbound fraction in rat plasma; type: ADME, cell-free
[10] = Volume of distribution at steady state in C57BL/6J mouse at 1 mg/kg, iv administered as single dose; type: ADME, organism-based; conditions: in vivo, read-out: Vdss
[11] = Unbound fraction in mouse plasma; type: ADME, cell-free
[12] = target: Gamma-secretase; assay: Modulation of human gamma secretase expressed in HEK293 cells assessed as reduction in free amyloid beta (1 to 42 residues) production; type: cell-based
[13] = Genotoxicity in Salmonella typhimurium by Ames test; type: toxicity; conditions: salmonella enterica subsp. enterica serovar typhimurium
[14] = Distribution coefficient, logD of compound; type: physicochemical; conditions: octanol/water
[15] = Oral bioavailability in C57BL/6J mouse at 3 mg/kg administered as single dose; type: ADME, organism-based; conditions: in vivo
[16] = Modulation of mouse gamma secretase in N2A cells assessed as reduction in total amyloid beta (1 to 42 residues) production; type: cell-based
[17] = target: Gamma-secretase; assay: Modulation of gamma secretase in human H4 cells overexpressing human APP695 harboring K595N/M596L Swedish double mutant assessed as reduction in free amyloid beta (1 to 42 residues) production measured after 24 hrs by AlphaLISA assay; type: cell-based
[18] = system: Mus musculus; assay: In vivo modulation of gamma secretase in APP Swedish double transgenic mouse assessed as reduction in free amyloid beta (1 to 42 residues) production measured after 4 hrs by AlphaLISA assay; type: functional, organism-based
[19] = Clearance in rat hepatocytes assessed per million cells; type: ADME, cell-based, Hepatocyte; conditions: read-out: CLH
[20] = Clearance in mouse hepatocytes assessed per million cells; type: ADME, cell-based, Hepatocyte; conditions: read-out: CLH
[21] = Unbound fraction in human plasma; type: ADME, cell-free
[22] = system: P-gp; assay: Substrate activity at mouse P-gp assessed as efflux ratio; type: ADME; conditions: not told
[23] = Modulation of mouse gamma secretase in N2A cells assessed as reduction in free amyloid beta (1 to 42 residues) production; type: cell-based
[24] = Clearance in C57BL/6J mouse at 1 mg/kg, iv administered as single dose; type: ADME, organism-based; conditions: in vivo
[25] = Terminal half life in C57BL/6J mouse at 1 mg/kg, iv administered as single dose; type: ADME, organism-based; conditions: in vivo, read-out: beta t1/2 (converted)
[26] = Oral bioavailability in Wistar rat at 3 mg/kg administered as single dose; type: ADME, organism-based; conditions: in vivo
[27] = Volume of distribution at steady state in Wistar rat at 1 mg/kg, iv administered as single dose; type: ADME, organism-based; conditions: in vivo, read-out: Vdss
[28] = Terminal half life in Wistar rat at 1 mg/kg, iv administered as single dose; type: ADME, organism-based; conditions: in vivo, read-out: beta t1/2 (converted)
[29] = Clearance in Wistar rat at 1 mg/kg, iv administered as single dose; type: ADME, organism-based; conditions: in vivo

`Cc1cc(N2C[C@H]3CC[C@@H](C2)[C@@H]3Nc2nc3n(n2)CCCN3c2ccc(C(F)(F)F)cc2)ncn1` gave an IC50 [1] of 11 nM.

In the case of `Cc1noc(N2C[C@H]3CC[C@@H](C2)[C@@H]3Nc2nc3n(n2)CCCN3c2ccc(F)c(F)c2)n1`, the solubility [2] is reported as 158 µg/mL (≈ 357 µM), the IC50 [1] is reported as 32 nM and the hepatocyte CLint [3] is reported as 1.5 µL/min/1e6 cells.

With `Fc1ccc(N2CCCn3nc(N[C@@H]4[C@@H]5CC[C@H]4CN(c4ccnc(C(F)(F)F)c4)C5)nc32)cc1F` the IC50 [1] was 15 nM.

For `COc1cc(N2C[C@H]3CC[C@@H](C2)[C@@H]3Nc2nc3n(n2)CCCN3c2ccc(F)c(F)c2)ccn1`, the solubility [2] was 11 µg/mL (≈ 23.5 µM), the IC50 [1] was 16 nM and the hepatocyte CLint [3] was 3.8 µL/min/1e6 cells. The IC20 [4] was greater than 1000 nM, the IC50 [5] was greater than 2000 nM and the efflux ratio [6] was 1.

Compound `Cc1cc(N2C[C@H]3CC[C@@H](C2)[C@@H]3Nc2nc3n(n2)CCCN3c2ccc(F)c(F)c2)cnn1` has a solubility [2] of 131 µg/mL (≈ 289 µM), an IC50 [1] of 23 nM and a hepatocyte CLint [3] of 2.3 µL/min/1e6 cells. For the same compound, the efflux ratio [6] was 3.3.

With `Fc1ccc(N2CCCCn3nc(N[C@@H]4[C@@H]5CC[C@H]4CN(c4ccnc(C(F)(F)F)c4)C5)nc32)cc1F` the IC50 [1] was 34 nM.

`Cc1cc(N2C[C@H]3CC[C@@H](C2)[C@@H]3Nc2nc3n(n2)CCCN3c2ccc(F)c(F)c2)ncn1` showed a solubility [2] of 161 µg/mL (≈ 356 µM), an IC50 [1] of 25 nM and a hepatocyte CLint [3] of 2 µL/min/1e6 cells. It also gave an efflux ratio [6] of 3.2.

In the case of `Cc1cc(N2C[C@H]3CC[C@@H](C2)[C@@H]3Nc2nc3n(n2)CCCC[C@H]3c2ccc(F)c(F)c2F)ncn1`, the IC50 [7] is reported as 2 nM, the Drug metabolism [8] is reported as “Not Active” and the fraction unbound [9] is reported as 0.014. The Vd [10] was 1.1 L/kg, the fraction unbound [11] was 0.014 and the IC50 [12] was 4 nM. For the same compound, the Activity [13] was “Non-Toxic”, the logD [14] was 3.8 and the bioavailability [15] was 53%. It also gave an IC50 [16] of 2 nM, an IC50 [17] of 4 nM and a hepatocyte CLint [3] of 4.5 µL/min/1e6 cells. The IC50 [18] was 2.5 nM, the hepatocyte CLint [19] was 43 µL/min/1e6 cells and the hepatocyte CLint [20] was 1.4 µL/min/1e6 cells. The fraction unbound [21] was 0.054, the efflux ratio [22] was 3.3 and the IC50 [23] was 4 nM. It also gave a clearance [24] of 5 mL/min/kg, a half-life [25] of 3.4 h and an IC20 [4] of 300 nM. The IC50 [5] was 1400 nM and the efflux ratio [6] was 2.4.

In the case of `Cc1cc(N2C[C@H]3CC[C@@H](C2)[C@@H]3Nc2nc3n(n2)CCCN3c2cc(F)cc(F)c2)ncn1`, the bioavailability [26] is reported as 82%, the solubility [2] is reported as 6 µg/mL (≈ 13.3 µM) and the Drug metabolism [8] is reported as “Not Active”. It also gave a fraction unbound [9] of 0.014, a fraction unbound [11] of 0.006 and a Vd [27] of 1.1 L/kg. The Activity [13] was “Non-Toxic”, the logD [14] was 3.5 and the IC50 [16] was 3 nM. The half-life [28] was 4.6 h, the hepatocyte CLint [3] was 2.4 µL/min/1e6 cells and the IC50 [18] was 3 nM. For the same compound, the hepatocyte CLint [19] was 6.4 µL/min/1e6 cells, the hepatocyte CLint [20] was 0.6 µL/min/1e6 cells and the clearance [29] was 3.5 mL/min/kg. The fraction unbound [21] was 0.01 and the IC50 [23] was 5 nM.

Compound `Cc1cc(N2C[C@H]3CC[C@@H](C2)[C@@H]3Nc2nc3n(n2)CCN3c2ccc(C(F)(F)F)cc2)ncn1` has an IC50 [1] of 26 nM.

`Fc1ccc(C2CCn3nc(N[C@@H]4[C@@H]5CC[C@H]4CN(c4ccnc(C(F)(F)F)c4)C5)nc32)cc1F` (some centres undefined) gave an IC50 [1] of 88 nM.

In the case of `Cc1cc(N2C[C@H]3CC[C@@H](C2)[C@@H]3Nc2nc3n(n2)CCCCN3c2ccc(C(F)(F)F)cc2)ncn1`, the IC50 [1] is reported as 19 nM.

With `Cc1nnc(N2C[C@H]3CC[C@@H](C2)[C@@H]3Nc2nc3n(n2)CCCCC3c2ccc(F)c(F)c2F)o1` (mixture of isomers) the IC50 [1] was 49 nM.

In the case of `FC(F)(F)c1cccc(C2CCCCn3nc(N[C@@H]4[C@@H]5CC[C@H]4CN(c4cnnc(Cl)c4)C5)nc32)c1` (mixture of isomers), the IC50 [1] is reported as 31 nM.

In the case of `Fc1ccc(C2CCCn3nc(N[C@@H]4[C@@H]5CC[C@H]4CN(c4cc(Cl)ncn4)C5)nc32)c(F)c1F` (mixture of isomers), the IC50 [1] is reported as 30 nM.

Work on `COc1cc(N2C[C@H]3CC[C@@H](C2)[C@@H]3Nc2nc3n(n2)CCCCC3c2ccc(F)c(F)c2F)ccn1` (mixture of isomers) yielded a solubility [2] of 3.2 µg/mL (≈ 6.42 µM), an IC50 [1] of 14 nM and a hepatocyte CLint [3] of 6 µL/min/1e6 cells. The efflux ratio [6] was 1.2.

`Fc1ccc(C2CCn3nc(N[C@@H]4[C@@H]5CC[C@H]4CN(c4ccnc(C(F)(F)F)c4)C5)nc32)c(F)c1F` (mixture of isomers) showed an IC50 [1] of 126 nM.

Compound `Fc1ccc(C2CCCCn3nc(N[C@@H]4[C@@H]5CC[C@H]4CN(c4cc(Cl)ncn4)C5)nc32)c(F)c1F` (mixture of isomers) has a solubility [2] of less than 0.3 µg/mL, an IC50 [1] of 14 nM and a hepatocyte CLint [3] of 2.6 µL/min/1e6 cells. For the same compound, the efflux ratio [6] was 1.5.

With `COc1cc(N2C[C@H]3CC[C@@H](C2)[C@@H]3Nc2nc3n(n2)CCCCC3c2cccc(C(F)(F)F)c2)cnn1` (mixture of isomers) the IC50 [1] was 40 nM.

`Cc1cc(N2C[C@H]3CC[C@@H](C2)[C@@H]3Nc2nc3n(n2)CCCCC3c2ccc(F)c(F)c2F)ncn1` (mixture of isomers) showed a solubility [2] of 0.7 µg/mL (≈ 1.45 µM), an IC50 [1] of 15 nM and a hepatocyte CLint [3] of 3.1 µL/min/1e6 cells. For the same compound, the efflux ratio [6] was 2.1.

For `Fc1ccc(C2CCCCn3nc(N[C@@H]4[C@@H]5CC[C@H]4CN(c4ccnc(C(F)(F)F)c4)C5)nc32)c(F)c1F` (mixture of isomers), the IC50 [1] was 31 nM.

Compound `Cc1nnc(N2C[C@H]3CC[C@@H](C2)[C@@H]3Nc2nc3n(n2)CCCC3c2ccc(F)c(F)c2F)o1` (mixture of isomers) has an IC50 [1] of 237 nM.

In the case of `Cc1cc(N2C[C@H]3CC[C@@H](C2)[C@@H]3Nc2nc3n(n2)CCCCC3c2cccc(C(F)(F)F)c2)ncn1` (mixture of isomers), the solubility [2] is reported as 34 µg/mL (≈ 68.3 µM), the IC50 [1] is reported as 19 nM and the hepatocyte CLint [3] is reported as 14 µL/min/1e6 cells. The efflux ratio [6] was 2.2.

Work on `Cc1cc(N2C[C@H]3CC[C@@H](C2)[C@@H]3Nc2nc3n(n2)CCCCC3c2ccc(F)c(F)c2F)cnn1` (mixture of isomers) yielded a solubility [2] of 188 µg/mL (≈ 389 µM), an IC50 [1] of 30 nM and a hepatocyte CLint [3] of 2.1 µL/min/1e6 cells. The efflux ratio [6] was 20.

In the case of `Cc1cc(N2C[C@H]3CC[C@@H](C2)[C@@H]3Nc2nc3n(n2)CCCC3c2ccc(C(F)(F)F)cc2)ncn1` (mixture of isomers), the IC50 [1] is reported as 25 nM.

Compound `Cc1cc(N2C[C@H]3CC[C@@H](C2)[C@@H]3Nc2nc3n(n2)CCCCC3c2ccc(F)c(F)c2F)on1` (mixture of isomers) has an IC50 [1] of 39 nM.

`Cc1cc(N2C[C@H]3CC[C@@H](C2)[C@@H]3Nc2nc3n(n2)CCCCC3c2ccc(F)c(F)c2)ncn1` (mixture of isomers) gave an IC50 [1] of 23 nM and a hepatocyte CLint [3] of 6.5 µL/min/1e6 cells.

Work on `Fc1ccc(C2CCCCn3nc(N[C@@H]4[C@@H]5CC[C@H]4CN(c4cnnc(Cl)c4)C5)nc32)c(F)c1F` (mixture of isomers) yielded a solubility [2] of 14 µg/mL (≈ 27.8 µM), an IC50 [1] of 14 nM and a hepatocyte CLint [3] of 3.3 µL/min/1e6 cells. It also gave an efflux ratio [6] of 4.3.

`COc1cc(N2C[C@H]3CC[C@@H](C2)[C@@H]3Nc2nc3n(n2)CCCCC3c2ccc(F)c(F)c2F)ncn1` (mixture of isomers) showed an IC50 [1] of 29 nM, an IC20 [4] of 200 nM and an IC50 [5] of 550 nM.

`Cc1noc(N2C[C@H]3CC[C@@H](C2)[C@@H]3Nc2nc3n(n2)CCCCC3c2ccc(F)c(F)c2F)n1` (mixture of isomers) gave an IC50 [1] of 44 nM.

`Fc1ccc(C2CCCn3nc(N[C@@H]4[C@@H]5CC[C@H]4CN(c4ccnc(C(F)(F)F)c4)C5)nc32)c(F)c1F` (mixture of isomers) showed an IC50 [1] of 44 nM.

`Cc1cc(N2C[C@H]3CC[C@@H](C2)[C@@H]3Nc2nc3n(n2)CCCCC3c2ccc(C(F)(F)F)cc2)ncn1` (mixture of isomers) showed an IC50 [1] of 14 nM.
